Measured values: patent US5734081A, “Arylthio compounds” (Warner-Lambert Company, priority 1995, dated 1998)
pEC50: −log10 of the molar value.

How the values were obtained:
Format in all cases: cell-based
[1] = system: HIV-1; assay: HIV H9 cell assay, anti-HIV-1 activity; conditions: Human immunodeficiency virus 1, H9, 168 h, read-out: EC50 (Effective Concentration which protects cells from viral cytopathic effects)
From the text: Another test system utilized to evaluate the invention compounds is called HIV H9 assay. The HIV H9 cell assay measures the inhibitor concentration required to suppress HIV-1 virus replication. In this system, viral growth occurs through multiple rounds of the life-cycle. Any suppression of the replication kinetics results in a geometric decrease in virus production. As a result, this assay is a sensitive means of measuring the ability of a compound to inhibit HIV-1 viral replication.
(§1) The H9 T-cell line is batch infected with HIV virus at an M0I of 0.01. After 2 hours absorption, the cells are washed, resuspended in RPMI-1640/10% fetal calf serum, and seeded at […] of a 96-well plate. A duplicate plate of uninfected H9 cells is prepared for the cytotoxicity assay. Drugs are serially diluted 1/3.16 in DMSO, transferred to media at an 8× concentration, and then added to the cultures in triplicate. The final DMSO concentration of 0.002 (0.2%).
(§2) Viral production is measured by RT assay and cytotoxicity is measured by XTT assay at 7 days post-infection. The RT assay is performed as a modification of Borroto-Esoda and Boone, J. Virol., 1991;65:1952-1959 and quantitated using a Molecular Dynamics Phosphoimager with Imagequant software. The XTT assay is performed as a modification of Roehm, et al., J. Immuno. Methods., 1991;142:257-265 and quantitated using a molecular Devices Thermomax plate reader with Softmax software.
(§3) Data is electronically transferred to a Microsoft Excell spreadsheet for analysis. The RT assay values equivalent to 50% and 90% inhibition of virus production are calculated from the untreated controls. The concentrations of inhibitor required to produce these values (IC50 and IC90) are interpolated from data points flanking these RT activities. The XTT assay values equivalent to 50% cytotoxicity are calculated from the untreated controls. The concentrations of inhibitor required to produce this value are interpolated from data points flanking these XTT values.

[2] = H9 cell cytotoxicity (XTT assay, uninfected cells); conditions: human, drug alone, read-out: IC50 (Inhibitory Concentration where drug alone inhibits cell growth)
Description: as §1, §2, §3

[3] = CEM cell growth inhibition (XTT, noninfected cells); conditions: human, CEM Cell Assay, drug alone, read-out: IC50 (Inhibitory Concentration where drug alone inhibits cell growth)
Summary of the method: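 Uninfected CEM T4 lymphocytes were run alongside HIV-infected cultures. Compound in DMSO was diluted 1:200 in medium, then in half-log10 steps, and added to an equal volume of cells.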

[4] = system: HIV-1RF; assay: Anti-HIV activity, HIV-1RF in CEM cells; conditions: Human immunodeficiency virus 1, CCRF-CEM; CEM, HIV-1RF; read-out: EC50
Description: (§4) Yet another test system employed to determine antiviral activity is called the CEM cell assay.
(§5) T4 lymphocytes (CEM cell line) are exposed to HIV at a virus to cell ratio approximately 0.05, and plated along with noninfected control cells in 96-well microliter plates.
(§6) The candidate agent is dissolved in dimethyl sulfoxide (unless otherwise noted), then diluted 1:200 in cell culture medium. Further dilutions (half-log10) are prepared before adding to an equal volume of medium containing either infected or noninfected cells. Cultures are incubated at 37° in a 5% carbon dioxide atmosphere for 6 or 7 days. The tetrazolium salt, XTT, is added to all wells, and cultures are incubated to allow formazan color development by viable cells (J. National Cancer Institute, 1989;81:577-586). Individual wells are analyzed spectrophotometrically to quantitate formazan production, and in addition are viewed microscopically for detection of viable cells confirmation of protective activity.
(§7) Drug-tested virus-infected cells are compared with drug-treated noninfected cells and with other appropriate controls (untreated infected and untreated noninfected cells, drug-contain wells without cells, etc.) on the same plate. Data are reviewed in comparison with other tests done at the same time and a determination about activity is made.
(§8) The compounds of the invention were also evaluated against various other HIV strains and cell lines utilizing the assay methodology described above. The compounds were additionally evaluated against clinical isolates of HIV strains.

[5] = system: HIV-1A17; assay: Anti-HIV activity, HIV-1A17 in MT-4 cells; conditions: Human immunodeficiency virus 1, MT4
Description: as §8

[6] = system: HIV-1N119; assay: Anti-HIV activity, HIV-1N119 in CEM cells; conditions: Human immunodeficiency virus 1, CCRF-CEM
Description: as §4, §5, §6, §7, §8

[7] = system: HIV-2ROD; assay: Anti-HIV activity, HIV-2ROD in CEM cells; conditions: Human immunodeficiency virus 2, CCRF-CEM; CEM, HIV-2ROD; read-out: EC50
Description: as §4, §5, §6, §7, §8

[8] = system: SIV; assay: Antiviral activity, SIV in CEM cells; conditions: Simian immunodeficiency virus, CCRF-CEM, read-out: EC50
[9] = system: HIV-1WEIO; assay: Anti-HIV activity, clinical isolate HIV-1WEIO in PBL; conditions: Human immunodeficiency virus 1
Description: as §8

[10] = system: HIV-1BAKI; assay: Anti-HIV activity, clinical isolate HIV-1BAKI in PBL
Description: as §8

[11] = system: HIV-1WOME; assay: Anti-HIV activity, clinical isolate HIV-1WOME in PBL; conditions: Human immunodeficiency virus 1
Description: as §8

[12] = Human immunodeficiency virus 1, PBL

Row | Compound | pEC50 [1] | CC50 at 168 h [2] | CC50 [3] | pEC50 [4] | pEC50 [5] | pEC50 [6] | pEC50 [7] | pEC50 [8] | pEC50 [9] | pEC50 [10, 12] | pEC50 [11] | pEC50 ([10]; PBL)
1 | CC(=O)Nc1ccc(SSc2ccc(NC(C)=O)cc2C(N)=O)c(C(N)=O)c1 [Example 9, 2,2'-Dithiobis(5-acetylamino)benzamide] | 5.77 | > 100000 nM | > 120000 nM | 6.40 | 5.62 | 5.64 | 6.00 | 5.68 | 5.12 | 5.74 | 5.24 | 
2 | NS(=O)(=O)c1ccc(NC(=O)c2ccccc2SSc2ccccc2C(=O)Nc2ccc(S(N)(=O)=O)cc2)cc1 [Example 1] | 6.15 | 36000 nM | > 120000 nM | 5.64 | 6.22 | 5.66 | 5.59 | 4.84 | 5.46 | 6.52 | 5.40 | 6.60
